≈ marks a conversion by molar mass, not a printed value. Where two headings read alike, the source gives them in different places. A value given as a limit tells only on which side of the number the result lay.

Data set [1] in a line: Solubility (Test F), McIlvaine buffer pH 6.5. In kind it is physicochemical. To be noted: disodium hydrogenphosphate-citric acid (McIlvaine) buffer, 25 °C, pH 6.5, aqueous buffer, thermodynamic from solid, McIlvaine buffer pH 6.5, 25° C., 24 to 72 h; theoretical maximum 200 μM.
Data set [2] concerns the target T1, Human NLRP3 (Homo sapiens (Human), UniProt Q96P20). The experiment in a line: Human NLRP3 speck formation assay (Test A), nigericin triggered ASC-speck formation in ASC-GFP reporter monocytes.
Data set [3] deals with T1, Human NLRP3.
For data set [4], the target named is T1, Human NLRP3. To be noted: Test C IC50, IL-1β release, THP-1 cells, LPS 2 μg/mL 24 h, BzATP 1 mM.
The next data set is described as follows: Solubility (Test E). It counts as physicochemical.
The target of another data set is hERG (Homo sapiens (Human), UniProt Q12809). Put plainly: hERG assay (Test D), SyncroPatch 384PE patch clamp, hERG-expressing CHO cells. It counts as cell-based. The settings on record: rt. On the technique in general: The hERG channel carries a current that helps repolarise heart muscle cells.
In a further data set the test system is IL-1β production. Put plainly: LPS/ATP test in mice, peritoneal IL-1β by ELISA. It counts as in vivo, BALB/cAJcl mice. The settings on record: Mus musculus, LPS/ATP i.p.; for inhibition at 1 mg/kg: 1 mg/kg orally; for inhibition at 3 mg/kg: 3 mg/kg orally. Background: ELISA stands for enzyme-linked immunosorbent assay.

T1 sequence (Q96P20 whole entry): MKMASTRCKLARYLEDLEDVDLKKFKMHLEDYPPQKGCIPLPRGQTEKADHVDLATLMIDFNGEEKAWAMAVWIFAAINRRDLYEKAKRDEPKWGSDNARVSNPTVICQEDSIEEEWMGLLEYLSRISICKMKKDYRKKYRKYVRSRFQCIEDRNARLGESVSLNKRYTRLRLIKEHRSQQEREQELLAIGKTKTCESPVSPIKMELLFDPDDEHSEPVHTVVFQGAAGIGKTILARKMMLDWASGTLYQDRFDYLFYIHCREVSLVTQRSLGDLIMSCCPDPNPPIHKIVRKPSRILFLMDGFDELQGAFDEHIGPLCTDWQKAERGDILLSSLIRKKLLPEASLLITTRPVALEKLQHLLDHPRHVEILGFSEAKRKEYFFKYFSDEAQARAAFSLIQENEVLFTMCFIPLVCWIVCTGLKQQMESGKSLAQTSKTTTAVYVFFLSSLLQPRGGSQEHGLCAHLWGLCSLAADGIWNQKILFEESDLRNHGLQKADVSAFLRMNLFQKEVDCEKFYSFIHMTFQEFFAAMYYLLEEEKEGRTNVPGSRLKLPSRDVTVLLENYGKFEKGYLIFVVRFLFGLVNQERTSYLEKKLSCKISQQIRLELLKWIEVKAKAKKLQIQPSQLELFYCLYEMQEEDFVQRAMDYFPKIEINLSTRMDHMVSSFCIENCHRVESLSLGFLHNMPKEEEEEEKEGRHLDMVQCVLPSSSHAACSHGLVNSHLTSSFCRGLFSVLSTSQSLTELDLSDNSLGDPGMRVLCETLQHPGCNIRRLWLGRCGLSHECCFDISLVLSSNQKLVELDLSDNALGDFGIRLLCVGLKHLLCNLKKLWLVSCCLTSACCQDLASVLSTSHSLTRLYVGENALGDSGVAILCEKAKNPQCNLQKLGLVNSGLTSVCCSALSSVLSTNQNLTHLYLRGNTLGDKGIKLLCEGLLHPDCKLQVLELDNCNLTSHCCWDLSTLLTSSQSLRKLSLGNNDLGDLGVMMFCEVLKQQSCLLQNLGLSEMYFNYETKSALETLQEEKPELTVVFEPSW
Chain of hERG (Q12809 whole entry): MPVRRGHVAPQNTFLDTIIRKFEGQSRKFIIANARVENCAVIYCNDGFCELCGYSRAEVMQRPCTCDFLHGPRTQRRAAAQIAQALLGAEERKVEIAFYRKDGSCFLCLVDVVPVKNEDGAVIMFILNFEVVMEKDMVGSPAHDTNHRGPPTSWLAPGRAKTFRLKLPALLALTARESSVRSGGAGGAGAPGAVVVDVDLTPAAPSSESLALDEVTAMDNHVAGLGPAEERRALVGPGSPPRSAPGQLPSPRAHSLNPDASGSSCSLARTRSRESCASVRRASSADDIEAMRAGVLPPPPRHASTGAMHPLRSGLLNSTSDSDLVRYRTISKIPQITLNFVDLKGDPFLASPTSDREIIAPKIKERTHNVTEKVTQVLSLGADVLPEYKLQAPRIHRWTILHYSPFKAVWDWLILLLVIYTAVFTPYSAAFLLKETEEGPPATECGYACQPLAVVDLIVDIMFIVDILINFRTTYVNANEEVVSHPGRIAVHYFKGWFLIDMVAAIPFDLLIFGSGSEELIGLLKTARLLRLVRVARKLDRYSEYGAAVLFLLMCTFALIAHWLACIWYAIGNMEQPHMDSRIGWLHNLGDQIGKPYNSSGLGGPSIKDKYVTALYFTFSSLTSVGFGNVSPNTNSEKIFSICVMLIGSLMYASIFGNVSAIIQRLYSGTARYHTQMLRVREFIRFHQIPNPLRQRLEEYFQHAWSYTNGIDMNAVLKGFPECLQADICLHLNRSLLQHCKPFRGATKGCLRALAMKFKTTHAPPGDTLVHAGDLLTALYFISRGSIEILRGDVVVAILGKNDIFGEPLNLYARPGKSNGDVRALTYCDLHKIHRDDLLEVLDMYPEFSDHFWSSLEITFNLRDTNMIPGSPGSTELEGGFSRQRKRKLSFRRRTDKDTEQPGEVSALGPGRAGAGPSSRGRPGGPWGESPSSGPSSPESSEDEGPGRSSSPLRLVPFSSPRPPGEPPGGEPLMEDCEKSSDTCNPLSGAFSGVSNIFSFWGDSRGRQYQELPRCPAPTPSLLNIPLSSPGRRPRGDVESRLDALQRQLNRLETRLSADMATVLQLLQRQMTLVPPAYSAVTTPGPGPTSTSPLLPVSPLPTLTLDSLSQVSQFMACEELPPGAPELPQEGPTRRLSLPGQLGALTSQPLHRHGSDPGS

The solubility is the concentration that dissolves in the medium under given conditions. As usually defined, the EC50 is the concentration needed to bring the measured effect to its halfway point. One may read the IC50 as the midpoint of a concentration-inhibition curve. As usually defined, the inhibition is the change of the read-out against control, counted positive when it falls. As for `OC[C@@H](O)CNc1nnc(-c2c(O)cc(C(F)(F)F)cc2F)c2ccccc12` [Example 7, (2S)-3-[[4-[2-fluoro-6-hydroxy-4-(trifluoromethyl)phenyl]phthalazin-1-yl]amino]propane-1,2-diol], the solubility in data set [1] came out at 70.3 µg/mL (≈ 177 µM); in the data set “Solubility (Test E)” it was 582 µM (≈ 231 µg/mL). In addition, on Human NLRP3 [2], the concentration for a half-maximal effect (EC50) came to 180 nM. In addition, the IC50 was 47 nM against Human NLRP3 [3], 22 nM at Human NLRP3 [4] and greater than 40000 nM at hERG. This compound gave an inhibition at 1 mg/kg in the data set with IL-1β production of 46%. In the data set with IL-1β production, this compound displayed an inhibition at 3 mg/kg of 95%.
For `C[C@@]1(O)CC[C@@H](Nc2nnc(-c3ccc(C(F)(F)F)cc3O)c3ccncc23)C1` [Example 38, 2-[4-[[(1R,3R)-3-hydroxy-3-methyl-cyclopentyl]amino]pyrido[3,4-d]pyridazin-1-yl]-5-(trifluoromethyl)phenol], the solubility in data set [1] is greater than 80.9 µg/mL; in the data set “Solubility (Test E)” it was 810 µM (≈ 328 µg/mL). The compound further returned an EC50 on Human NLRP3 [2] of 27 nM. Also, the values for the IC50 on Human NLRP3 [3], on Human NLRP3 [4] and against hERG were 16 nM, 9 nM and greater than 40000 nM, respectively. For the same compound, in the data set with IL-1β production, the inhibition at 1 mg/kg came out at 29%. This compound also showed an inhibition at 3 mg/kg in the data set with IL-1β production of 83%.
For `Oc1cc(C(F)(F)F)cc(F)c1-c1nnc(N[C@@H]2CCC[C@H](O)C2)c2cnccc12` [Example 45, 3-fluoro-2-[4-[[(1R,3S)-3-hydroxycyclohexyl]amino]pyrido[3,4-d]pyridazin-1-yl]-5-(trifluoromethyl)phenol], the solubility in data set [1] came out at 10.4 µg/mL (≈ 24.6 µM); in the data set “Solubility (Test E)”, 121 µM (≈ 51.1 µg/mL). In addition, the EC50 on Human NLRP3 [2] is 44 nM. Besides, the IC50 against Human NLRP3 [3] is 25 nM; against Human NLRP3 [4], 9 nM; against hERG it was greater than 40000 nM. In the data set on IL-1β production, the inhibition at 3 mg/kg is 82%.
In the case of `Oc1cc(OC(F)(F)F)ccc1-c1nnc(N[C@@H]2CCCC[C@H]2O)c2cnccc12` [Example 56, 2-[4-[[(1R,2R)-2-hydroxycyclohexyl]amino]pyrido[3,4-d]pyridazin-1-yl]-5-(trifluoromethoxy)phenol], the results for the solubility (in data set [1]; in the data set “Solubility (Test E)”) were 14.5 µg/mL (≈ 34.5 µM) and 263 µM (≈ 111 µg/mL), respectively. On Human NLRP3 [2], this compound had an EC50 of 25 nM. For the same compound, the IC50 is 8 nM against Human NLRP3 [3], 3 nM at Human NLRP3 [4] and 19000 nM against hERG. In the data set on IL-1β production, this compound showed an inhibition at 3 mg/kg of 98%.
For `Oc1cc(C(F)(F)F)ccc1-c1nnc(N[C@@H]2CC[C@@H](O)C2)c2cnccc12` [Example 59, 2-(4-(((1R,3R)-3-hydroxycyclopentyl)amino)pyrido[3,4-d]pyridazin-1-yl)-5-(trifluoromethyl)phenol], the solubility in data set [1] was greater than 78.1 µg/mL; in “Solubility (Test E)” it was 47 µM (≈ 18.3 µg/mL). At Human NLRP3 [2], this compound showed an EC50 of 16 nM. Besides, the IC50 was 9 nM on Human NLRP3 [3], 5 nM at Human NLRP3 [4] and greater than 40000 nM on hERG. In addition, the inhibition at 1 mg/kg with IL-1β production is 44%. The inhibition at 3 mg/kg in the data set on IL-1β production came out at 70%.
For the compound `Oc1cc(C(F)(F)F)ccc1-c1nnc(N[C@@H]2CC[C@H](O)C2)c2cnccc12` [Example 60, 2-(4-(((1R,3S)-3-hydroxycyclopentyl)amino)pyrido[3,4-d]pyridazin-1-yl)-5-(trifluoromethyl)phenol], the solubility in data set [1] was determined as 10.3 µg/mL (≈ 26.4 µM); in the data set “Solubility (Test E)”, 26 µM (≈ 10.1 µg/mL). The EC50 on Human NLRP3 [2] came out at 17 nM. The IC50 was 12 nM against Human NLRP3 [3], less than 3 nM on Human NLRP3 [4] and greater than 40000 nM on hERG. The compound also yielded an inhibition at 1 mg/kg in the data set with IL-1β production of 60%. Besides, testing at 3 mg/kg with IL-1β production gave an inhibition of 97%.
`C[C@]1(O)CCC[C@@H](Nc2nnc(-c3ccc(C(F)(F)F)cc3O)c3ccncc23)C1` [Example 62, 2-[4-[[(1R,3S)-3-hydroxy-3-methyl-cyclohexyl]amino]pyrido[3,4-d]pyridazin-1-yl]-5-(trifluoromethyl)phenol]: the solubility in data set [1] amounted to 25.7 µg/mL (≈ 61.4 µM); in the data set “Solubility (Test E)”, 120 µM (≈ 50.2 µg/mL). Moreover, at Human NLRP3 [2], it took 60 nM to reach a half-maximal effect (EC50). Also, the IC50 is 6 nM against Human NLRP3 [4] and greater than 40000 nM on hERG. The compound also yielded an inhibition at 3 mg/kg in the data set with IL-1β production of 71%.
As to `CC(C)(O)CNc1nnc(-c2ccc(C(F)(F)F)cc2O)c2ccncc12` [Example 70, 2-[4-[(2-hydroxy-2-methyl-propyl)amino]pyrido[3,4-d]pyridazin-1-yl]-5-(trifluoromethyl)phenol], the solubility in data set [1] worked out at 17.7 µg/mL (≈ 46.8 µM); in “Solubility (Test E)” it was 5 µM (≈ 1.89 µg/mL). It took 67 nM to reach a half-maximal effect at Human NLRP3 [2] (EC50). The IC50 against Human NLRP3 [3] was 26 nM; against Human NLRP3 [4] it was 10 nM; against hERG, greater than 40000 nM. Moreover, the inhibition at 3 mg/kg in the data set on IL-1β production was 98%.
